Test results: US20070264202A1, “Pharmaceutical Composition Comprising an Isomer of Betamimetic Agent and an Anti-Cholinergic Agent” (CIPLA LIMITED, priority 2004, published 2007)

Experiments:
beta-adrenoreceptor = settings: in-vitro studies, salbutamol enantiomers; cited from earlier work
[1] = cited from earlier work
[2] = Flow, suspension and dispersion characteristics; type: physicochemical; settings: compared with the racemate
[3] = compared with the racemate; cited from earlier work
[4] = system: subjects with stable mild to moderate bronchial asthma; assay: Randomized double-blind, single-dose, crossover study of bronchodilator responses via metered dose inhaler; type: in vivo; settings: monitored over 6 hours
Procedure: A study was conducted to compare bronchodilator responses to levosalbutamol sulphate and racemic salbutamol sulphate administered via metered dose inhaler in a randomized double-blind, single-dose, crossover study. In this study single doses of 100 mcg levosalbutamol sulphate and 200 mcg racemic salbutamol sulphate were administered via MDI in subjects with stable mild to moderate bronchial asthma, who were then monitored over a period of 6 hours. […] Thus, it is clear from the study that a reduced dose of levosalbutamol sulphate is required compared to racemic salbutamol sulphate to have the same therapeutic effect.

For `CC(C)(C)NC[C@@H](O)c1ccc(O)c(CO)c1` (single isomer, unassigned) [S-isomer], the “affinity for the beta-adrenoreceptor” value (beta-adrenoreceptor) is given as “markedly less affinity”.
In the case of `COc1ccc(C[C@@H](C)NC[C@H](O)c2ccc(O)c(NC=O)c2)cc1` [R,R formoterol], the “activity relative to S,S-isomer or any other available isomer” value [1] is given as 1000 times.
For `CC(C)(C)NC[C@H](O)c1ccc(O)c(CO)c1` [levosalbutamol], the flow property [2] is listed as “more free flowing than the racemate”, the “suspension and dispersion characteristics” value [2] is listed as “better suspension and dispersion characteristics” and the bronchodilatory effects [3] is listed as “greater bronchodilatory effects than the racemate”.
With levosalbutamol sulphate the bronchodilator response ([4]; single dose 100 mcg via MDI, compared with 200 mcg racemic salbutamol sulphate) was “equivalent time-dependant bronchodilator responses”.
For “salbutamol sulphate [racemic salbutamol sulphate]”, the bronchodilator response ([4]; single dose 200 mcg via MDI, compared with 100 mcg levosalbutamol sulphate) was “equivalent time-dependant bronchodilator responses”.
